These results are taken from ChEMBL document CHEMBL4818987, “Recent advances of podophyllotoxin/epipodophyllotoxin hybrids in anticancer activity, mode of action, and structure-activity relationship: An update (2010-2020)” (Eur J Med Chem, 2020).

The subject of series [1] is HeLa. Kind of series: Cytotoxicity against human HeLa cells incubated for 24 hrs by CCK8 assay. The class given is functional, cell-based. In general terms: Tetrazolium dyes change colour on reduction, which living cells bring about.
A short description of series [2]: Cytotoxicity against PBMC (unknown origin) incubated for 24 hrs by CCK8 assay.
For series [3], the system named is L02. Kind of series: Cytotoxicity against human L02 cells incubated for 24 hrs by CCK8 assay. The note with it: L02, 24 h. Type of series: functional, cell-based.
The subject of series [4] is HepG2. Kind of series: Cytotoxicity against human HepG2 cells incubated for 24 hrs by CCK8 assay. The conditions noted are these: HepG2, 24 h. The class given is functional, cell-based.
Series [5] concerns A549. Kind of series: Cytotoxicity against human A549 cells incubated for 24 hrs by CCK8 assay. Type of series: functional, cell-based. The conditions noted are these: A549, 24 h.
The subject of series [6] is MCF7. Kind of series: Cytotoxicity against human MCF7 cells incubated for 24 hrs by CCK8 assay. The class given is functional, cell-based. The note with it: MCF7, 24 h.
In series [7] the test system is K562/A02. Kind of series: Potency index, ratio of doxorubicin IC50 to test compound IC50 for human K562/A02 cells. Type of series: functional.
In series [8] the test system is K562/A02. Kind of series: Potency index, ratio of etoposide GI50 to test compound GI50 for human K562/A02 cells. Type of series: functional.
For series [9], the system named is K562/A02. Kind of series: Cytotoxicity against human K562/A02 cells by SRB assay. The class given is functional, cell-based. Background: Sulforhodamine B stains cellular protein and so reports cell mass.
For series [10], the system named is K562. Kind of series: Cytotoxicity against human K562 cells by SRB assay. Type of series: functional, cell-based.
Series [11] relates to HFF. Kind of series: Cytotoxicity against human HFF cells. The class given is cell-based.
Series [12] concerns SK-BR-3. Kind of series: Antiproliferative activity against human SK-BR-3 cells. The class given is functional, cell-based.
A short description of series [13]: Selectivity index, ratio of IC50 for human HFF cells to IC50 for human A549 cells. The class given is toxicity. The conditions noted are these: pooled result: one value given for 20 cell lines, strains, targets or settings, read-out: Ratio IC50.
Series [14] relates to LNCaP. Kind of series: Antiproliferative activity against human LNCaP cells. The class given is functional, cell-based.
Series [15] has as its system K562/Adr. Kind of series: Antiproliferative activity against human K562/ADR cells. The class given is functional, cell-based.
Series [16] has as its system K562. Kind of series: Antiproliferative activity against human K562 cells. The class given is functional, cell-based.
In series [17] the test system is L02. Kind of series: Cytotoxicity against human HL7702 cells. The class given is cell-based.
The subject of series [18] is HCT-116. Kind of series: Antiproliferative activity against human HCT116 cells. Type of series: functional, cell-based.
The test system of series [19] is U-251. Kind of series: Antiproliferative activity against human U251 cells. The class given is functional, cell-based.
Series [20] deals with SMMC-7721. Kind of series: Antiproliferative activity against human SMMC-7721 cells. The class given is functional, cell-based.
In series [21] the test system is K562. Kind of series: Potency index, ratio of etoposide IC50 to test compound IC50 for human K562 cells. Type of series: functional.
The subject of series [22] is K562/A02. Kind of series: Antiproliferative activity against human K562/A02 cells by MTT assay. Type of series: functional, cell-based.
The subject of series [23] is HeLa. Kind of series: Antiproliferative activity against human HeLa cells by MTT assay. The class given is functional, cell-based.
In series [24] the test system is K562. Kind of series: Antiproliferative activity against human K562 cells by MTT assay. Type of series: functional, cell-based.
The test system of series [25] is HeLa. Kind of series: Potency index, ratio of etoposide IC50 to test compound IC50 for human HeLa cells. Type of series: functional.
Series [26] in a line: Resistance index, ratio of IC50 for human K562/AO2 cells to IC50 for human K562 cells. Type of series: functional.
Series [27] deals with K562/Adr. Kind of series: Potency index, ratio of etoposide IC50 to test compound IC50 for antiproliferative activity against human K562/ADM cells. The class given is functional.
Series [28] deals with HeLa. Kind of series: Antiproliferative activity against human HeLa cells incubated for 48 hrs by MTT assay. Type of series: functional, cell-based.
Series [29] deals with K562. Kind of series: Antiproliferative activity against human K562 cells incubated for 48 hrs by MTT assay. Type of series: functional, cell-based. The conditions noted are these: K562, 48 h.
Series [30] relates to K562/Adr. Kind of series: Antiproliferative activity against human K562/ADM cells incubated for 48 hrs by MTT assay. The class given is functional, cell-based.

Turning to `COc1cc([C@@H]2c3cc4c(cc3[C@H](OC(=O)c3c[nH]c5ccccc35)[C@H]3COC(=O)[C@H]23)OCO4)cc(OC)c1OC`, the IC50 (in general, the point on the concentration scale where inhibition reaches its midpoint) in [1] amounted to 1930 nM; in series [2] it was 75600 nM; in series [3] it was 88900 nM; in [4], 1930 nM; in series [5] it was 1930 nM; in series [6], 1930 nM.
On to `COc1ccc2[nH]cc(C(=O)C(=O)N[C@@H]3c4cc5c(cc4[C@@H](c4cc(OC)c(OC)c(OC)c4)[C@H]4C(=O)OC[C@@H]43)OCO5)c2c1`, for which the “Ratio IC50” value in [7] and in series [8] was 4.2 in each case. Moreover, the GI50 (as a rule, the concentration giving 50% growth inhibition) in [9] was 3340 nM; in series [10], 1020 nM.
For the compound `COC(=O)c1ccc(-c2cn(CC(=O)O[C@H]3c4cc5c(cc4[C@@H](c4cc(OC)c(OC)c(OC)c4)[C@H]4C(=O)OC[C@@H]43)OCO5)nn2)cc1`, the IC50 in series [11] came to 195 nM; in [12], 19.6 nM; in [14], 19.6 nM; in series [15], 19.6 nM; in [16], 19.6 nM; in series [17] it was 565 nM. The IC50 in series [18], in series [19] and in series [20] was 19.6 nM in each case. For the same compound, the selectivity ratio in [13] came out at 3.5.
Turning to `COc1cc([C@@H]2c3cc4c(cc3[C@@H](NCc3cc5ccccc5[nH]3)[C@H]3COC(=O)[C@H]23)OCO4)cc(OC)c1OC`, the “Ratio IC50” value turned out to be 1.7 in series [21], 1.7 in series [25], 1.97 in series [26] and 1.7 in series [8]. Also, the IC50 in [22] amounted to 2230 nM; in series [23], 100 nM; in series [24], 100 nM.
For the compound `COc1cc([C@@H]2c3cc4c(cc3[C@@H](n3cnc([N+](=O)[O-])c3)[C@H]3COC(=O)[C@H]23)OCO4)cc(OC)c1O`, the “Ratio IC50” value in [27] turned out to be 18.4. Besides, the IC50 in series [28] was found to be 8120 nM; in [29], 4160 nM; in series [30], 4160 nM.
